Patent publication US20250326794A1, “ANTI-CANCER LEUCINE-RICH PEPTIDES AND USES THEREOF” (KING'S COLLEGE LONDON, priority 2019, published 2025)

Columns and labels:
[1] = test system: HEK293T (human embryonic kidney cell); assay: cells; settings: 72 h
[2] = test system: HMLER (human breast cancer bulk cell); assay: cells; settings: 72 h
Method in brief: (§1)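 MTT viability after 72 h exposure to 0–100 μM compound (final DMSO 0.5% or 0%), 5×10^3 cells/well; HMLER lines and MCF-10A in MEGM, U2OS in DMEM with 10% FBS. A550 normalized to matching vehicle controls; IC50 interpolated from dose–response curves.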

[3] = test system: HMLER-shEcad (human breast cancer stem cell); assay: cells; settings: 72 h
Method in brief: as §1

[4] = test system: MCF-10A (human breast epithelial cell); assay: cells; settings: 72 h
Method in brief: as §1

[5] = test system: U2OS (human bone osteosarcoma); settings: 72 h
Method in brief: as §1

[6] = Tryptophan fluorescent binding assay, POPC vesicles; settings: 50 μM peptide, PBS pH 7.4, lipid per peptide
Method in brief: (§2)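 Peptide fixed at 50 μM, titrated with POPC or 3POPC/1POPG large unilamellar vesicles (100 nm extruded; 0-5000 μM lipid) in PBS pH 7.4. Tryptophan fluorescence (ex 280, em 300-450 nm) read after 60 min; lipid concentration giving 50% binding reported as lipid/peptide ratio.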

[7] = Tryptophan fluorescent binding assay, 3POPC/1POPG vesicles; settings: 50 μM peptide, PBS pH 7.4, lipid per peptide
Method in brief: as §2

[8] = ANTS/DPX liposome leakage assay, POPC vesicles; format: biochemical; settings: 0.5 mM vesicles; for Peptide Concentration-induced 50% ANTS/DPX leakage at pH 4.8, POPC Vesicle: pH 4.8, lipid per peptide; for Peptide Concentration-induced 50% ANTS/DPX leakage at pH 7.4, POPC Vesicle: pH 7.4, lipid per peptide
Method in brief: (§3)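 LUVs (100 nm extruded) of POPC or POPC:POPG 3:1, loaded with 5 mM ANTS/12.5 mM DPX, used at 0.5 mM lipid with peptide 0–20 μM in PBS pH 7.4 or HCl-adjusted PBS pH 4.8. Leakage read after 3 h (ex 350/em 510 nm) against 10% Triton maximum; 50% leakage expressed as lipid per peptide.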

[9] = ANTS/DPX liposome leakage assay, 3POPC/1POPG vesicles; format: biochemical; settings: for Peptide Concentration-induced 50% ANTS/DPX leakage at pH 4.8, 3POPC/1POPG Vesicle / Peptide Concentration-induced 50% ANTS/DPX leakage at pH 7.4, 3POPC/1POPG Vesicle: 0.5 mM vesicles; for Peptide Concentration-induced 50% ANTS/DPX leakage at pH 4.8, 3POPC/1POPG Vesicle: pH 4.8, lipid per peptide; for Peptide Concentration-induced 50% ANTS/DPX leakage at pH 7.4, 3POPC/1POPG Vesicle: pH 7.4, lipid per peptide; for liposome leakage activity from anionic vesicle at pH 4.8 (in words): anionic versus zwitterionic vesicle
Method in brief: as §3

HMLER-shEcad cells = assay: HMLER-shEcad viability with co-incubated necroptosis/apoptosis inhibitors; format: cell-based, human; settings: 20 μM necrostatin-1 or 5 μM z-VAD-FMK (FIG. 9C, 9D)

SMILES	IC50 [1] [µM]	IC50 [2] [µM]	IC50 [3] [µM]	IC50 [4] [µM]	IC50 [5] [µM]	Lipid Concentration-induced 50% Peptide Binding, POPC Vesicle [6] [L/P]	Lipid Concentration-induced 50% Peptide Binding, 3POPC/1POPG Vesicle [7] [L/P]	Peptide Concentration-induced 50% ANTS/DPX leakage at pH 4.8, POPC Vesicle [8] [L/P]	Peptide Concentration-induced 50% ANTS/DPX leakage at pH 7.4, POPC Vesicle [8] [L/P]	Peptide Concentration-induced 50% ANTS/DPX leakage at pH 4.8, 3POPC/1POPG Vesicle [9] [L/P]	Peptide Concentration-induced 50% ANTS/DPX leakage at pH 7.4, 3POPC/1POPG Vesicle [9] [L/P]	liposome leakage activity from anionic vesicle at pH 4.8 (in words) [9]	cell viability on co-incubation with necrostatin or z-VAD-FMK (HMLER-shEcad cells)
CC(C)C[C@H](NC(=O)CN)C(=O)N[C@@H](CC(C)C)C(=O)N[C@@H](CCCCN)C(=O)N[C@@H](CC(C)C)C(=O)N[C@@H](CC(C)C)C(=O)N[C@@H](CCC(=O)O)C(=O)N[C@@H](CC(C)C)C(=O)N[C@@H](CC(C)C)C(=O)N[C@@H](CC(C)C)C(=O)N[C@@H](CCC(=O)O)C(=O)N[C@@H](C)C(=O)N[C@@H](C)C(=O)NCC(=O)N[C@@H](Cc1c[nH]c2ccccc12)C(N)=O [KEE]	11.1 ± 1.84	3.75 ± 0.78	2.05 ± 0.21	≥ 100	49.4 ± 13.3	0.20	0.20	97	626	108	657		
CC(C)C[C@H](NC(=O)CN)C(=O)N[C@@H](CC(C)C)C(=O)N[C@@H](CC(=O)O)C(=O)N[C@@H](CC(C)C)C(=O)N[C@@H](CC(C)C)C(=O)N[C@@H](CCC(=O)O)C(=O)N[C@@H](CC(C)C)C(=O)N[C@@H](CC(C)C)C(=O)N[C@@H](CC(C)C)C(=O)N[C@@H](CCCCN)C(=O)N[C@@H](C)C(=O)N[C@@H](C)C(=O)NCC(=O)N[C@@H](Cc1c[nH]c2ccccc12)C(N)=O [DEK]	6.8 ± 0.85	1.14 ± 0.52	0.7 ± 0.07	≥ 100	19.9 ± 2.65	1.50	1.67	10	747	469	773	relatively higher liposome leakage activity	
CC(C)C[C@@H](NC(=O)CN)C(=O)N[C@H](CC(C)C)C(=O)N[C@H](CCC(=O)O)C(=O)N[C@H](CC(C)C)C(=O)N[C@H](CC(C)C)C(=O)N[C@H](CCC(=O)O)C(=O)N[C@H](CC(C)C)C(=O)N[C@H](CC(C)C)C(=O)N[C@H](CC(C)C)C(=O)N[C@H](CCCCN)C(=O)N[C@H](C)C(=O)N[C@H](C)C(=O)NCC(=O)N[C@H](Cc1c[nH]c2ccccc12)C(N)=O [D-form EEK]													cannot be improved
CC(C)C[C@H](NC(=O)CN)C(=O)N[C@@H](CC(C)C)C(=O)N[C@@H](CCC(=O)O)C(=O)N[C@@H](CC(C)C)C(=O)N[C@@H](CC(C)C)C(=O)N[C@@H](CCC(=O)O)C(=O)N[C@@H](CC(C)C)C(=O)N[C@@H](CC(C)C)C(=O)N[C@@H](CC(C)C)C(=O)N[C@@H](CCC(=O)O)C(=O)N[C@@H](C)C(=O)N[C@@H](C)C(=O)NCC(=O)N[C@@H](Cc1c[nH]c2ccccc12)C(N)=O [EEE]	50	6.25 ± 1.77	10.6 ± 3.46	≥ 100	78.8 ± 5.3	1.33	4.50	35	143	28	346		
CC(C)C[C@H](NC(=O)CN)C(=O)N[C@@H](CC(C)C)C(=O)N[C@@H](CCC(=O)O)C(=O)N[C@@H](CC(C)C)C(=O)N[C@@H](CC(C)C)C(=O)N[C@@H](CCC(=O)O)C(=O)N[C@@H](CC(C)C)C(=O)N[C@@H](CC(C)C)C(=O)N[C@@H](CC(C)C)C(=O)N[C@@H](CCCCN)C(=O)N[C@@H](C)C(=O)N[C@@H](C)C(=O)NCC(=O)N[C@@H](Cc1c[nH]c2ccccc12)C(N)=O [EEK]						0.48	4.50	39	730	386	657	relatively higher liposome leakage activity	cannot be improved
CC(C)C[C@H](NC(=O)CN)C(=O)N[C@@H](CC(C)C)C(=O)N[C@@H](CCC(=O)O)C(=O)N[C@@H](CC(C)C)C(=O)N[C@@H](CC(C)C)C(=O)N[C@@H](CCC(=O)O)C(=O)N[C@@H](CC(C)C)C(=O)N[C@@H](CC(C)C)C(=O)N[C@@H](CC(C)C)C(=O)N[C@@H](Cc1c[nH]cn1)C(=O)N[C@@H](C)C(=O)N[C@@H](C)C(=O)NCC(=O)N[C@@H](Cc1c[nH]c2ccccc12)C(N)=O [EEH]	12.9 ± 0.14	3.3 ± 0.14	3.6 ± 0.85	≥ 100	19.6 ± 3.96	0.50	0.50	58	738	168	755	relatively higher liposome leakage activity	
CC(C)C[C@H](NC(=O)CN)C(=O)N[C@@H](CC(C)C)C(=O)N[C@@H](CCC(=O)O)C(=O)N[C@@H](CC(C)C)C(=O)N[C@@H](CC(C)C)C(=O)N[C@@H](Cc1c[nH]cn1)C(=O)N[C@@H](CC(C)C)C(=O)N[C@@H](CC(C)C)C(=O)N[C@@H](CC(C)C)C(=O)N[C@@H](CCC(=O)O)C(=O)N[C@@H](C)C(=O)N[C@@H](C)C(=O)NCC(=O)N[C@@H](Cc1c[nH]c2ccccc12)C(N)=O [EHE]	13	3.9 ± 0.28	2.55 ± 0.07	≥ 100	18.2 ± 1.06	0.44	0.44	75	952	384	706	relatively higher liposome leakage activity	
CC(C)C[C@H](NC(=O)CN)C(=O)N[C@@H](CC(C)C)C(=O)N[C@@H](Cc1c[nH]cn1)C(=O)N[C@@H](CC(C)C)C(=O)N[C@@H](CC(C)C)C(=O)N[C@@H](CCCCN)C(=O)N[C@@H](CC(C)C)C(=O)N[C@@H](CC(C)C)C(=O)N[C@@H](CC(C)C)C(=O)N[C@@H](Cc1c[nH]cn1)C(=O)N[C@@H](C)C(=O)N[C@@H](C)C(=O)NCC(=O)N[C@@H](Cc1c[nH]c2ccccc12)C(N)=O [HKH]	5.7 ± 0.99	3.45 ± 0.21	3.1 ± 0.57		18.9 ± 1.24	0.18	0.38	193	1077	47	274		
